{"source": "patent US4675405A", "about": "“Quinoline compounds as antiallergic and antithrombotic agents” (American Home Products Corporation, priority 1986, dated 1987)", "key": {"[1]": {"system": "LTB4 synthesis (lipoxygenase)", "assay": "inhibition of LTB4 (5,12-diHETE) synthesis by rat glycogen-elicited polymorphonuclear leukocytes", "format": "cell-based", "settings": "Leukocyte; rat PMN, A23187 + [14C]arachidonic acid; read-out: 50% Inhibitory Concentration (IC50) LTB4", "method": "(§1) This is especially true with respect to 5,12-diHETE, which is also denoted as LTB4 [see Ford-Hitchinson, J. Roy. Soc. Med., 74, 831 (1981)]. The assay of this Example measures the ability of the compounds of the inventin to inhibit the synthesis of 5HETE and LTB4 by rat glycogen-elicited polymorphonuclear leukocytes.\n(§2) Peritoneal PMN are obtained from female Wistar rats (150-250 g) that received an i.p. injection of 6% glycogen (10 ml). After 24 hours, rats are killed by CO2 asphyxiation and peritoneal cells are harvested by peritoneal lavage using Ca^++ and Mg^++ free Hanks' balanced salt solution (HBSS). The peritoneal exudate is centrifuged at 400 g for 10 minutes. After centrifugation, the lavaged fluid is removed and the cell pellet is resuspended in HBSS containing Ca^++ and Mg^++ and 10 mM L-cysteine at a concentration of 2×10^7 cells/ml. To 1 ml portions of cell suspension, test drugs or vehicle are added and incubated at 37° C. for 10 minutes. Following this preincubation, the calcium ionophore (10 μM), A23187, is added together with 0.5 μCi [^14 C] arachidonic acid and further incubated for 10 minutes. […] After chromatography, the areas associated with 5-HETE and 5,12-diHETE standards are identified by autoradiography, cut out and quantitated by liquid scintillation.\n(§3) Results are expressed as % inhibition of [^14 C]5-HETE and [^14 C]LTB4 (5,12-HETE)synthesis. […]"}, "[2]": {"system": "5-HETE synthesis (lipoxygenase)", "assay": "inhibition of 5-HETE synthesis by rat glycogen-elicited polymorphonuclear leukocytes", "format": "cell-based", "settings": "for IC50: Leukocyte, rat PMN, A23187 + [14C]arachidonic acid, read-out: 50% Inhibitory Concentration (IC50) 5-HETE", "method": "as §1\n(§4) Peritoneal PMN are obtained from female Wistar rats (150-250 g) that received an i.p. injection of 6% glycogen (10 ml). After 24 hours, rats are killed by CO2 asphyxiation and peritoneal cells are harvested by peritoneal lavage using Ca^++ and Mg^++ free Hanks' balanced salt solution (HBSS). The peritoneal exudate is centrifuged at 400 g for 10 minutes. After centrifugation, the lavaged fluid is removed and the cell pellet is resuspended in HBSS containing Ca^++ and Mg^++ and 10 mM L-cysteine at a concentration of 2×10^7 cells/ml. To 1 ml portions of cell suspension, test drugs or vehicle are added and incubated at 37° C. for 10 minutes. Following this preincubation, the calcium ionophore (10 μM), A23187, is added together with 0.5 μCi [^14 C] arachidonic acid and further incubated for 10 minutes. The reaction is stopped by the addition of ice cold water (3 ml) and acidifying to pH 3.5. Lipoxygenase products are then extracted twice into diethyl ether. The pooled ether extracts are evaporated to dryness under nitrogen and the residue is redissolved in a small volume of methanol and spotted on aluminum backed pre-coated thin layer chromatographic plates. The samples are them co-chromatographed with authentic reference 5-HETE, 12-HETE and 5,12-diHETE in the solvent system--hexane:ether:acetic acid (50:50:3). After chromatography, the areas associated with 5-HETE and 5,12-diHETE standards are identified by autoradiography, cut out and quantitated by liquid scintillation.\nResults are expressed as % inhibition of [^14 C]5-HETE and [^14 C]LTB4 (5,12-HETE)synthesis. [formula]\nTesting compounds of the invention in this assay and using the antioxident 3-amino-1-[m-(trifluoromethyl)phenyl]-2-pyrazoline (BW755C) as a standard, the following results are obtained."}, "[3]": {"system": "LTD4 induced bronchospasm", "assay": "in vivo inhibition of LTD4 induced bronchospasm in guinea pigs", "set-up": "species or system guinea pig", "settings": "for % Inhibition (Statistical Average), Overflow Volume at 1 min. / % Inhibition (Statistical Average), Overflow Volume at 3 min. / % Inhibition (Statistical Average), Overflow Volume at 5 min.: 10 minutes before LTD4", "method": "The assay of this Example measures the in vivo ability of the compounds of the invention to inhibit the bronchospasm induced in guinea pigs by the exogenously administered leukotrienes C4 and/or D4. This assay is essentially a measure of the SRS-A antagonist properties of the compounds tested.\nMale Hartley strain guinea pigs (350-600 g) are anesthetized with pentobarbital sodium (50 mg/kg, i.p.). The jugular vein is cannulated for injection of drugs and the carotid artery for monitoring blood pressure. The trachea is cannulated for artificial ventilation by a miniature Starling pump and for indirect measurement of respiratory volume changes as described infra. Additional pentobarbital sodium (15 mg/kg, i.v.) is administered to arrest spontaneous respiration. Submaximal bronchoconstrictor responses are established in control animals by varying the dose-levels of leukotriene. Intravenous dose-levels for LTC4 range from 1 to 2 μg/kg and for LTD4 the range is from 0.3 to 1 μg/kg. The aerosol bronchoprovocation dose for LTC4 is generated from 1.6 μM solution and for LTD4 from a 2.0 μM solution.\nTest drugs are administered either intravenously, intragastrically, by aerosol or orally at 1 or 10 minutes before induction of bronchospasm by administration of either LTC4 or LTD4 at the predetermined dose-levels. Aerosols of soluble drugs or leukotrienes are produced in-line for 10 seconds only by actuation of an ultrasonic nebulizer (Monaghan). Aerosolized drug dosage is expressed in terms of solution concentration and by a fixed aerosol exposure time (approximately 10 seconds). Control animals receive saline in place of drug.\n(§5) Respiratory volume changes are determined by a calibrated piston whose travel is recorded, via a linear transducer, on a Beckman Dynograph recorder. Maximal bronchoconstrictor volume is determined by clamping off the trachea at the end of the experiment. Overflow volumes at 1, 3 and 5 minutes are obtained from the recorded charts.\nThe overflow volume at 1, 3 and 5 minutes is expressed as a percentage of maximal bronchoconstriction. Combined group values are used from each of these time intervals to determine the inhibitory effect of drugs. [formula] Students t-test for unpaired data is used to determine statistical significance. Dose reponse curves are generated and ED50 doses are interpolated from the regression lines.\nResults for compounds of the invention in this assay, using LTD4 for induction of bronchospasm, are given below:\nTwo other compounds of this invention are tested in this assay and the results are expressed based on the following calculations which employ the values obtained for the overflow volumes at 1, 3 and 5 minutes:\nArea under the volume overflow curve (AUC) is estimated, using the overflow values at 1, 3 and 5 minutes, and expressed as a percentage of the maximal overflow AUC (equation 1): [formula] Drug effects are reported as percent inhibition of % max AUC values obtained from appropriate control animals (equation 2): [formula]\nStudent's t-test for unpaired data is used to determine statistical significance (p<0.05). IC50 values can also be determined by inverse prediction from linear regression lines through points between 10 and 90% inhibition."}, "[4]": {"system": "TxB2 synthesis (cyclooxygenase)", "assay": "inhibition of synthesis of the cyclooxygenase oxidation product TxB2 by rat PMN", "format": "cell-based", "method": "as §4\nThe procedure of Example 5 is also employed for the determination of the ability of the compounds of the invention to inhibit the synthesis of the arachidonic acid cyclooxygenase oxidation product TxB2.\nIn this assay, the procedure of Example 5 is carried out as described. However, in order to determine cyclooxygenase activity, the samples are cochromatographed with authentic reference TxB2 in the solvent system ethyl acetate:formic acid (80:1) and the upper phase of ethyl acetate:isoctane:acetic acid:water (110:50:20:100). After chromatography, the areas associated with TxB2 standard are identified by autoradiography, cut out and quantitated by liquid scintillation techniques.\nThe results are calculated as in Example 5."}, "[5]": {"system": "5-HETE and LTB4 synthesis (lipoxygenase)", "assay": "inhibition of synthesis of lipoxygenase products 5-HETE and LTB4 by rat PMN (product not separately stated)", "format": "cell-based", "method": "as §1, §2, §3"}, "[6]": {"system": "ovalbumin induced bronchospasm", "assay": "in vivo inhibition of ovalbumin induced bronchospasm mediated by endogenous mediators in sensitized guinea pigs", "set-up": "species or system guinea pig", "settings": "10 minutes before i.v. ovalbumin challenge", "method": "The assay of this Example measures the in vivo ability of the compounds of the invention to inhibit the bronchospasm induced in guinea pigs by endogenous mediators of the bronchoconstriction.\nMale Hartley strain guinea pigs weighing 250-350 g are sensitized to chicken ovalbumin (OA) (10 mg i.p.) on days 1 and 3 and used starting on day 26. The animals are anesthetized with pentobarbital sodium (50 mg/kg, i.p.), bilateral vagotomy is performed, and the jugular vein is cannulated for injection of drugs and the carotid artery for monitoring blood pressure. The trachea is cannulated for artificial ventilation by miniature Starling pump and for indirect measurement of respiratory volume changes as described, infra. Succinylcholine (2 mg/kg, i.v.) is administered to arrest spontaneous respiration. […]\nas §5, with “volumes at minutes 1, 3” for “volumes at 1, 3”, “and 5 are obtained” for “and 5 minutes are obtained”\nArea under the volume overflow curve (AUC) is estimated, using the overflow values at 1, 3 and 5 minutes, and expressed as a percentage of the maximal overflow AUC (equation 1): [formula] […]"}}, "data": [{"compound": "CCCCS(=O)(=O)Nc1cccc(OCc2ccc3ccccc3n2)c1", "note": "[Example 2B, N-[3-[(2-Quinolinyl)methoxy]phenyl]-1-butane sulfonamide]", "values": [{"measurement": "IC50", "setting": "[1]", "result": 2.1, "unit": "µM"}, {"measurement": "IC50", "setting": "[2]", "result": 1.6, "unit": "µM"}, {"measurement": "% Inhibition (Statistical Average), Overflow Volume at 1 min.", "setting": "[3]; 50 mg/kg intraduodenal", "result": "08", "unit": "%"}, {"measurement": "% Inhibition (Statistical Average), Overflow Volume at 3 min.", "setting": "[3]; 50 mg/kg intraduodenal", "result": 41, "unit": "%"}, {"measurement": "% Inhibition (Statistical Average), Overflow Volume at 5 min.", "setting": "[3]; 50 mg/kg intraduodenal", "result": 41, "unit": "%"}, {"measurement": "% Inhibition at 100 μm (TxB2 synthesis)", "setting": "[4]", "result": 73, "unit": "%"}]}, {"compound": "CCS(=O)(=O)Nc1cccc(OCc2cc3ccccc3s2)c1", "note": "[Example 2D, N-[3-[(2-Benzo[b]thienyl)methoxy]phenyl]ethane sulfonamide]", "values": [{"measurement": ">50% Inhibitory at 50 μm", "setting": "[5]", "result": "+ (inhibition of >50%)"}, {"measurement": "% Inhibition of Max AUC", "setting": "[3]; 50 mg/kg intraduodenal, 10 minutes before induction of bronchospasm", "result": 13, "unit": "%"}, {"measurement": "50% Inhibition at 50 μm (TxB2 synthesis)", "setting": "[4]", "result": "+ (inhibition of >50%)"}]}, {"compound": "CCS(=O)(=O)Nc1cccc(OCc2ccc3ccccc3c2)c1", "note": "[Example 2C, N-[3-[(2-Naphthalenyl)methoxy]phenyl]ethane sulfonamide]", "values": [{"measurement": "% Inhibition (Statistical Average), Overflow Volume at 1 min.", "setting": "[3]; 50 mg/kg intraduodenal", "result": 61, "unit": "%"}, {"measurement": "% Inhibition (Statistical Average), Overflow Volume at 3 min.", "setting": "[3]; 50 mg/kg intraduodenal", "result": 41, "unit": "%"}, {"measurement": "% Inhibition (Statistical Average), Overflow Volume at 5 min.", "setting": "[3]; 50 mg/kg intraduodenal", "result": 53, "unit": "%"}]}, {"compound": "CCS(=O)(=O)Nc1cccc(OCc2ccc3ccccc3n2)c1", "note": "[Example 2A, N-[3-[(2-Quinolinyl)methoxy]phenyl]ethane sulfonamide]", "values": [{"measurement": "% Inhibition at 100 μm (first value, 5-HETE by column order)", "setting": "[2]; 100 μm", "result": 93, "unit": "%"}, {"measurement": "% Inhibition (Statistical Average), Overflow Volume at 1 min.", "setting": "[3]; 50 mg/kg intraduodenal", "result": 88, "unit": "%"}, {"measurement": "% Inhibition (Statistical Average), Overflow Volume at 3 min.", "setting": "[3]; 50 mg/kg intraduodenal", "result": 86, "unit": "%"}, {"measurement": "% Inhibition (Statistical Average), Overflow Volume at 5 min.", "setting": "[3]; 50 mg/kg intraduodenal", "result": 81, "unit": "%"}, {"measurement": "% Inhibition at 100 μm (TxB2 synthesis)", "setting": "[4]", "result": 56, "unit": "%"}]}, {"compound": "NC1=NN(c2cccc(C(F)(F)F)c2)CC1", "note": "[BW755C, 3-amino-1-[m-(trifluoromethyl)phenyl]-2-pyrazoline, reference compound]", "values": [{"measurement": "IC50", "setting": "[1]", "result": 30, "unit": "µM"}, {"measurement": "IC50", "setting": "[2]", "result": 43, "unit": "µM"}]}, {"compound": "CCCS(=O)(=O)Nc1cccc(OCc2cc3ccccc3s2)c1", "note": "[Example 2E, N-[3-[(2-Benzo[b]thienyl]methoxy]phenyl]-1-propane sulfonamide]", "values": [{"measurement": ">50% Inhibitory at 50 μm", "setting": "[5]", "result": "+ (inhibition of >50%)"}, {"measurement": "50% Inhibition at 50 μm (TxB2 synthesis)", "setting": "[4]", "result": "+ (inhibition of >50%)"}]}, {"compound": "O=S(=O)(Nc1cccc(OCc2ccc3ccccc3n2)c1)C(F)(F)F", "note": "[Example 3, N-[3-[(2-Quinolinyl)methoxy]phenyl]trifluoromethane sulfonamide]", "values": [{"measurement": "% Inhibition", "setting": "[6]; 25 mg/kg intragastric", "result": 97, "unit": "%"}, {"measurement": "ED50", "setting": "[6]; Cavia porcellus, 10 min, intragastric, read-out: IC50 (the source's name)", "result": 0.6, "unit": "mg/kg"}, {"measurement": "% Inhibition", "setting": "[3]; 25 mg/kg administered intragastrically", "result": 98, "unit": "%"}, {"measurement": "ED50", "setting": "[3]; Cavia porcellus, po, administered intragastrically, LTD4 induced bronchospasm, read-out: IC50 (the source's name)", "result": 0.1, "unit": "mg/kg"}]}]}
